Converted amounts (≈) assume the structure as drawn.
Columns and labels:
Type in all cases: functional
Helicobacter pylori [1] = test: Antibacterial activity against multidrug resistant Helicobacter pylori G27 assessed as bacterial growth inhibition incubated for 3 days by broth microdilution method; conditions: G27, 72 h, time 3 day
Helicobacter pylori [2] = test: Antibacterial activity against multidrug resistant Helicobacter pylori HP159 assessed as bacterial growth inhibition incubated for 3 days by broth microdilution method; conditions: HP159, 72 h, time 3 day
Helicobacter pylori [3] = test: Antibacterial activity against multidrug resistant Helicobacter pylori JRES00015 assessed as bacterial growth inhibition incubated for 3 days by broth microdilution method; conditions: JRES00015, 72 h, time 3 day
Helicobacter pylori [4] = test: Potency index, ratio of metronidazole MIC to test compound MIC for antibacterial activity against multidrug resistant Helicobacter pylori JRES00015
Helicobacter pylori [5] = test: Antibiofilm activity against Helicobacter pylori G27 assessed as reduction in preformed bacterial biofilm at 4 times MIC by crystal violet staining based assay; parameters: scale not given: the % may be the effect or the level left
Helicobacter pylori [6] = test: Antibiofilm activity against Helicobacter pylori G27 assessed as reduction in viable cells count at 4 times MIC
Helicobacter pylori [7] = test: Antibiofilm activity against Helicobacter pylori G27 assessed as reduction in viable bacteria within biofilms at 0.25 ug/ml incubated for 20 hrs by alamar blue assay; conditions: dose 0.25 µg/ml

SMILES	MIC (Helicobacter pylori [1]) [µg/mL]	MIC (Helicobacter pylori [2]) [µg/mL]	MIC (Helicobacter pylori [3]) [µg/mL]	Ratio (Helicobacter pylori [4])	Activity (Helicobacter pylori [5]) [%]	Activity (Helicobacter pylori [6]) [log10CFU/ml]	Activity (Helicobacter pylori [7]) [%]
OC[C@H]1O[C@@H](Oc2c3c(c(O[C@@H]4O[C@H](CO)[C@@H](O)[C@H](O)[C@H]4O)c4ccccc24)COC=C3)[C@H](O)[C@@H](O)[C@@H]1O	32 (≈ 59.4 µM)	32 (≈ 59.4 µM)	32 (≈ 59.4 µM)	–	–	–	–
COC(=O)c1ccc2c(c1)C(=O)c1cc(O)ccc1C2=O	2 (≈ 7.09 µM)	4 (≈ 14.2 µM)	2 (≈ 7.09 µM)	–	–	–	–
CO[C@H]1Cc2c(c(O[C@@H]3O[C@H](C)[C@@H](O)[C@H](O)[C@H]3O)c3ccccc3c2O[C@@H]2O[C@H](CO)[C@@H](O)[C@H](O)[C@H]2O)CO1	> 64	> 64	> 64	–	–	–	–
Cc1ccc2c(c1)C(=O)c1cc(O)c(O)cc1C2=O	32 (≈ 126 µM)	32 (≈ 126 µM)	32 (≈ 126 µM)	–	–	–	–
O=C1C2=C(C(=O)c3ccccc31)C(O)OCC2 (stereo not given)	0.125 (≈ 0.543 µM)	0.125 (≈ 0.543 µM)	0.0625 (≈ 0.271 µM)	512	–	–	–
Cc1ccc2c(c1)C(=O)c1cc(O)ccc1C2=O	8 (≈ 33.6 µM)	8 (≈ 33.6 µM)	16 (≈ 67.2 µM)	–	–	–	–
Cc1ncc([N+](=O)[O-])n1CCO [METRONIDAZOLE]	2 (≈ 11.7 µM)	16 (≈ 93.5 µM)	32 (≈ 187 µM)	–	33	0.76	–
CO[C@@H]1Cc2c(c(O[C@@H]3O[C@H](CO)[C@@H](O)[C@H](O)[C@H]3O)c3ccccc3c2O[C@@H]2O[C@H](CO)[C@@H](O)[C@H](O)[C@H]2O)CO1	> 64	> 64	> 64	–	–	–	–
CO[C@H]1OCc2c(c(O[C@@H]3O[C@H](CO)[C@@H](O)[C@H](O)[C@H]3O)c3ccccc3c2O[C@@H]2O[C@H](C)[C@@H](O)[C@H](O)[C@H]2O)[C@@H]1O	64 (≈ 112 µM)	64 (≈ 112 µM)	32 (≈ 56.1 µM)	–	–	–	–
CO[C@H]1Cc2c(c(O[C@@H]3O[C@H](CO)[C@@H](O)[C@H](O)[C@H]3O)c3ccccc3c2O[C@@H]2O[C@H](CO)[C@@H](O)[C@H](O)[C@H]2O)CO1	> 64	> 64	> 64	–	–	–	–
C[C@H]1O[C@@H](Oc2c3c(c(O[C@@H]4O[C@H](CO)[C@@H](O)[C@H](O)[C@H]4O)c4ccccc24)C=COC3)[C@H](O)[C@@H](O)[C@@H]1O	32 (≈ 61.2 µM)	32 (≈ 61.2 µM)	32 (≈ 61.2 µM)	–	–	–	–
C/C(=C/Cc1c(C(=O)O)c(O[C@@H]2O[C@H](CO)[C@@H](O)[C@H](O)[C@H]2O)c2ccccc2c1O[C@@H]1O[C@H](CO)[C@@H](O)[C@H](O)[C@H]1O)CO	> 64	> 64	> 64	–	–	–	–
COc1cc2c(cc1O)C(=O)c1cc(C)ccc1C2=O	16 (≈ 59.6 µM)	8 (≈ 29.8 µM)	16 (≈ 59.6 µM)	–	–	–	–
O=C(O)c1ccc2c(c1)C(=O)c1ccccc1C2=O	0.5 (≈ 1.98 µM)	1 (≈ 3.96 µM)	0.25 (≈ 0.991 µM)	–	–	–	–
C[C@H]1COc2c(N3CCN(C)CC3)c(F)cc3c(=O)c(C(=O)O)cn1c23.C[C@H]1COc2c(N3CCN(C)CC3)c(F)cc3c(=O)c(C(=O)O)cn1c23.O [LEVOFLOXACIN]	0.25	8	16	–	–	–	–
CC[C@H]1OC(=O)[C@H](C)[C@@H](O[C@H]2C[C@@](C)(OC)[C@@H](O)[C@H](C)O2)[C@H](C)[C@@H](O[C@@H]2O[C@H](C)C[C@H](N(C)C)[C@H]2O)[C@](C)(OC)C[C@@H](C)C(=O)[C@H](C)[C@@H](O)[C@]1(C)O [CLARITHROMYCIN]	0.008 (≈ 0.0107 µM)	2 (≈ 2.67 µM)	2 (≈ 2.67 µM)	–	–	–	–
CO[C@@H]1Cc2c(c(O[C@@H]3O[C@H](C)[C@@H](O)[C@H](O)[C@H]3O)c3ccccc3c2O[C@@H]2O[C@H](CO)[C@@H](O)[C@H](O)[C@H]2O)CO1	64 (≈ 115 µM)	64 (≈ 115 µM)	32 (≈ 57.7 µM)	–	–	–	–
O=C1c2ccccc2C(=O)c2cc(CO)ccc21	8 (≈ 33.6 µM)	8 (≈ 33.6 µM)	8 (≈ 33.6 µM)	–	–	–	–
OC[C@H]1O[C@@H](Oc2c3c(c(O[C@@H]4O[C@H](CO)[C@@H](O)[C@H](O)[C@H]4O)c4ccccc24)CC(O)OC3)[C@H](O)[C@@H](O)[C@@H]1O (stereo not given in full)	> 64	> 64	> 64	–	–	–	–
O=C1c2ccccc2C(=O)c2cnccc21	0.125 (≈ 0.598 µM)	0.0625 (≈ 0.299 µM)	0.0625 (≈ 0.299 µM)	512	51	4.65	100
COc1ccc2c(c1)C(=O)c1cc(CO)ccc1C2=O	8 (≈ 29.8 µM)	8 (≈ 29.8 µM)	8 (≈ 29.8 µM)	–	–	–	–

From ChEMBL document CHEMBL5120817, “Quinone Derivatives as Promising Anti-Helicobacter pylori Agents from Aerial Parts of Mitracarpus hirtus” (2022)
